In patent publication US20070128217A1 (priority 2003, published 2007):

What was measured:
[1] = test system: control sera (pooled serum of ten healthy LUMC hospital workers; commercial negative donor pooled serum from the Dutch bloodbank); assay type: binding, human; parameters: Binding of Control serum LUMC to linear peptides / Binding of Control serum Blood-bank to linear peptides / Binding of Control serum LUMC to looped peptides / Binding of Control Serum Blood-Bank to Looped peptides / Binding of Control serum LUMC to linear peptides of the protein M of SARS-CoV Urbani / Binding of Control serum Blood-bank to linear peptides of the protein M of SARS-CoV Urbani / Binding of Control serum LUMC to looped peptides of the protein M of SARS-CoV Urbani / Binding of Control Serum Blood-Bank to Looped peptides of the protein M of SARS-CoV Urbani: unit not given here
[2] = test system: antibodies in sera from SARS patients (sera 1a, 1b, 2, 6, 37, 62, London, SARS-yellow, SARS-green); assay type: binding, human; parameters: Binding of serum 6 to linear peptides of protein X1 of SARS-CoV Urbani / Binding of serum 37 to linear peptides of protein X1 of SARS-CoV Urbani / Binding of serum 6 to looped/cyclic peptide (PEPSCAN-ELISA) / Binding of serum 37 to looped/cyclic peptide (PEPSCAN-ELISA) / Binding of serum 37 to looped/cyclic peptides of protein X1 of SARS-CoV Urbani / Binding of serum 6 to linear peptides of protein X2 / Binding of serum 37 to linear peptides of protein X2 / Binding of serum 37 to looped/cyclic peptides of protein X2 of SARS-CoV Urbani / Binding of serum 6 to linear peptides of protein M of SARS-CoV Urbani / Binding of serum 37 to linear peptides of protein M of SARS-CoV Urbani / Binding of serum 6 to looped/cyclic peptides of protein M of SARS-CoV Urbani / Binding of serum 37 to looped/cyclic peptides of protein M of SARS-CoV Urbani / Binding of serum 6 to linear peptides of protein X3 of SARS-CoV Urbani / Binding of serum 37 to linear peptides of protein X3 of SARS-CoV Urbani / Binding of serum 37 to looped/cyclic peptides of protein X3 of SARS-CoV Urbani / Binding of serum 6 to linear peptides of protein X4 of SARS-CoV Urbani / Binding of serum 37 to linear peptides of protein X4 of SARS-CoV Urbani / Binding of serum 37 to looped/cyclic peptides of protein X4 of SARS-CoV Urbani / Binding of serum 6 to linear peptides of protein X5 of SARS-CoV Urbani / Binding of serum 37 to linear peptides of protein X5 of SARS-CoV Urbani / Binding of serum 37 to looped/cyclic peptides of protein X5 of SARS-CoV Urbani / Binding of serum 6 to linear peptides of protein N of SARS-CoV Urbani / Binding of serum 37 to linear peptides of protein N of SARS-CoV Urbani / Binding of serum 6 to linear peptide (PEPSCAN-ELISA) / Binding of serum 1a to looped/cyclic peptides of protein N of SARS-CoV Urbani / Binding of serum 1b to looped/cyclic peptides of protein N of SARS-CoV Urbani / Binding of serum 2 to looped/cyclic peptides of protein N of SARS-CoV Urbani / Binding of serum 6 to looped/cyclic peptides of protein N of SARS-CoV Urbani / Binding of serum 37 to looped/cyclic peptides of protein N of SARS-CoV Urbani / Binding of serum 62 to looped/cyclic peptides of protein N of SARS-CoV Urbani / Binding of serum London to looped/cyclic peptides of protein N of SARS-CoV Urbani / Binding of serum SARS-green to looped/cyclic peptides of protein N of SARS-CoV Urbani: unit not given here
[3] = test system: rabbit serum obtained by immunizing a rabbit with the SARS-CoV strain Frankfurt 1; assay type: binding; parameters: Binding of a rabbit serum to linear peptides / Binding of a rabbit serum to looped peptides / Rabbit serum linear peptides / Rabbit serum looped peptides / Binding of a rabbit serum to linear peptides of protein N of SARS-CoV Urbani (Rabbit serum linear peptides) / Binding of a rabbit serum to looped/cyclic peptides of protein N of SARS-CoV Urbani (Rabbit serum looped peptides): unit not given here

QQELYSPLFLIVAAL
0.7: Binding of serum 1a to linear peptides of protein X4 of SARS-CoV Urbani [2] | Binding of serum 1a to looped/cyclic peptides of protein X4 of SARS-CoV Urbani [2] | Binding of serum 6 to linear peptides of protein X4 of SARS-CoV Urbani [2] | Binding of serum 37 to linear peptides of protein X4 of SARS-CoV Urbani [2] | Binding of serum SARS-yellow to looped/cyclic peptides of protein X4 of SARS-CoV Urbani [2]
0.3: Binding of serum London to looped/cyclic peptides of protein X4 of SARS-CoV Urbani [2]
0.4: Binding of Control serum LUMC to linear peptides [1] | Binding of serum 1b to looped/cyclic peptides of protein X4 of SARS-CoV Urbani [2] | Binding of serum 6 to looped/cyclic peptides of protein X4 of SARS-CoV Urbani [2] | Rabbit serum linear peptides [3] | Rabbit serum looped peptides [3]
0.5: Binding of Control serum Blood-bank to linear peptides [1] | Binding of serum 1b to linear peptides of protein X4 of SARS-CoV Urbani [2] | Binding of serum 2 to linear peptides of protein X4 of SARS-CoV Urbani [2] | Binding of serum SARS-green to looped/cyclic peptides of protein X4 of SARS-CoV Urbani [2]
0.8: Binding of serum London to linear peptides of protein X4 of SARS-CoV Urbani [2]
0.6: Binding of Control Serum Blood-Bank to Looped peptides [1] | Binding of Control serum LUMC to looped peptides [1] | Binding of serum 2 to looped/cyclic peptides of protein X4 of SARS-CoV Urbani [2] | Binding of serum 37 to looped/cyclic peptides of protein X4 of SARS-CoV Urbani [2] | Binding of serum 62 to linear peptides of protein X4 of SARS-CoV Urbani [2] | Binding of serum 62 to looped/cyclic peptides of protein X4 of SARS-CoV Urbani [2] | Binding of serum SARS-green to linear peptides of protein X4 of SARS-CoV Urbani [2] | Binding of serum SARS-yellow to linear peptides of protein X4 of SARS-CoV Urbani [2]

WLLWPVTLACFVLAA
0.5: Binding of Control Serum Blood-Bank to Looped peptides of the protein M of SARS-CoV Urbani [1] | Binding of serum 1b to linear peptides of protein M of SARS-CoV Urbani [2] | Binding of serum 2 to linear peptides of protein M of SARS-CoV Urbani [2] | Binding of serum 6 to looped/cyclic peptides of protein M of SARS-CoV Urbani [2]
0.7: Binding of serum 1a to looped/cyclic peptides of protein M of SARS-CoV Urbani [2] | Binding of serum 2 to looped/cyclic peptides of protein M of SARS-CoV Urbani [2] | Binding of serum 37 to looped/cyclic peptides of protein M of SARS-CoV Urbani [2] | Binding of serum 62 to looped/cyclic peptides of protein M of SARS-CoV Urbani [2] | Binding of serum SARS-yellow to looped/cyclic peptides of protein M of SARS-CoV Urbani [2]
0.0: Binding of serum SARS-yellow to linear peptides of protein M of SARS-CoV Urbani [2]
0.2: Binding of Control serum LUMC to linear peptides of the protein M of SARS-CoV Urbani [1] | Binding of serum London to looped/cyclic peptides of protein M of SARS-CoV Urbani [2]
0.3: Binding of serum 1b to looped/cyclic peptides of protein M of SARS-CoV Urbani [2] | Binding of serum London to linear peptides of protein M of SARS-CoV Urbani [2] | Binding of serum SARS-green to linear peptides of protein M of SARS-CoV Urbani [2] | Binding of serum SARS-green to looped/cyclic peptides of protein M of SARS-CoV Urbani [2] | Rabbit serum linear peptides [3] | Rabbit serum looped peptides [3]
0.4: Binding of Control serum Blood-bank to linear peptides of the protein M of SARS-CoV Urbani [1] | Binding of serum 6 to linear peptides of protein M of SARS-CoV Urbani [2]
0.6: Binding of Control serum LUMC to looped peptides of the protein M of SARS-CoV Urbani [1] | Binding of serum 1a to linear peptides of protein M of SARS-CoV Urbani [2] | Binding of serum 37 to linear peptides of protein M of SARS-CoV Urbani [2] | Binding of serum 62 to linear peptides of protein M of SARS-CoV Urbani [2]

NKRWQLALYKGFQFI
0.8: Binding of serum 6 to linear peptides of protein X1 of SARS-CoV Urbani [2]
0.7: Binding of Control Serum Blood-Bank to Looped peptides [1] | Binding of Control serum LUMC to looped peptides [1] | Binding of serum 1a to linear peptides of protein X1 of SARS-CoV Urbani [2] | Binding of serum 2 to linear peptides of protein X1 of SARS-CoV Urbani [2] | Binding of serum 62 to looped/cyclic peptide (PEPSCAN-ELISA) [2]
0.2: Binding of serum SARS-green to looped/cyclic peptide (PEPSCAN-ELISA) [2]
0.3: Binding of serum London to linear peptides of protein X1 of SARS-CoV Urbani [2] | Binding of serum SARS-green to linear peptides of protein X1 of SARS-CoV Urbani [2] | Binding of serum SARS-yellow to linear peptides of protein X1 of SARS-CoV Urbani [2]
0.5: Binding of serum 1b to linear peptides of protein X1 of SARS-CoV Urbani [2] | Binding of serum 2 to looped/cyclic peptide (PEPSCAN-ELISA) [2] | Binding of serum 6 to looped/cyclic peptide (PEPSCAN-ELISA) [2] | Binding of serum SARS-yellow to looped/cyclic peptide (PEPSCAN-ELISA) [2]
0.4: Binding of serum 1b to looped/cyclic peptide (PEPSCAN-ELISA) [2] | Binding of serum London to looped/cyclic peptide (PEPSCAN-ELISA) [2]
recognized: Recognition of the peptide by the rabbit serum [3]
0.6: Binding of Control serum Blood-bank to linear peptides [1] | Binding of Control serum LUMC to linear peptides [1] | Binding of serum 1a to looped/cyclic peptide (PEPSCAN-ELISA) [2] | Binding of serum 37 to linear peptides of protein X1 of SARS-CoV Urbani [2] | Binding of serum 37 to looped/cyclic peptide (PEPSCAN-ELISA) [2] | Binding of serum 62 to linear peptides of protein X1 of SARS-CoV Urbani [2]
